pEC50: −log10 of the molar value. “And” between values parts separate entries of the source, which are not always exact repeats. Identical values can stand only once. “Also recorded” adds a separate entry of the source.
Legend:
[1] = system: rHEK293-GCaMP5g cells; test: Carbachol-induced Ca2+ store release in rHEK293-GCaMP5g cells (FlexStation 3); format: cell-based, human; details: for pEC50: carbachol 100 μM in Ca2+ free solution, areas under the curve (RFU) normalised to DMSO control, read-out: EC50, inhibition of Ca2+ store release; for Block of carbachol-induced Ca2+ store release: compound 4 μM, carbachol 100 μM, Ca2+ free solution
Text: (§1) Untransfected human embryonic kidney 293 (HEK293) cells are a model for neuronal cell Ca^2+ signalling via Gq type G protein-coupled receptors (such as the metabotropic glutamate receptors). […] The current study utilised a custom-developed recombinant human embryonic kidney 293 (rHEK293) cell line stably over-expressing a genetically encoded Ca^2+ reporter (GCaMP5g—after [Akerboom J et al., 2012 Journal of Neuroscience, 32(40): 13819-13840]). This enabled imaging of the Ca^2+ store release under conditions where Carbachol (muscarinic receptor agonist)—induced Ca^2+ store release via the endogenous M3 muscarinic receptor—was delivered in a solution (in mM: NaCl 145; KCl 5.8; MgCl2 0.9; HEPES 10, NaH2PO4 0.7, d-glucose 5.6; pH 7.2-7.4, osmolarity 310-330 mOsm/L), lacking Ca^2+, to the wells containing the adherent rHEK293-GCaMP5g cells, using a FlexStation 3 multi-modal microplate reader (Molecular Devices). This paradigm, with sustained Carbachol presentation, results in extrusion of the cytosolic Ca^2+ from the cell via plasma membrane Ca^2+ pumps, alongside Ca^2+ store depletion. When Ca^2+ is then added to the media, a Ca^2+ signal is detected that reflects Ca^2+ entry into the cells via Ca^2+ entry pathways [Elliott, 2001 Cell calcium, 30, 73-93].
(§2) This study investigated the effect of Nx-1 and Nx-2 on the Ca^2+ re-entry in the rHEK293-GCaMP5g cells using the FlexStation 3 plate reader in ‘Flex Read’ configuration (485 nm excitation, 510 nm emission, 6 flashes per sample, medium detector sensitivity, 37° C., 780 sample points at 1.54 s intervals). The cells were seeded into the 96 well plates in DMEM media with 10% foetal calf serum supplement. The cells approached confluence at ˜66 hours at which stage the cells were washed with the Ca^2+-free solution, and then the drug was added in Ca^2+ free solution (80 μl) and the plate was then placed into the FlexStation plate reader (37° C.) and rested for 30 minutes prior to imaging. The Carbachol (final concentration 100 μM in Ca^2+ free solution; drug at specified concentration) was added 180 seconds after the start of the Ca^2+ imaging read. The Ca^2+ entry was triggered at 480 seconds by adding 10 μl of Carbachol in Ca^2+ solution with the drug (final concentrations: 100 uM Carbachol, Ca^2+1.3 mM; drug at specified concentration). The Ca^2+ imaging proceeded for a total duration of 20 minutes. Controls utilized DMSO carrier at corresponding dilution used with the drug at specified concentrations. Data analysis was based on the areas under the curves (RFU—relative fluorescence Units), with statistical analysis using Sigmaplot (Systat software, version 12.0) and graphics produced using Graphpad Prism (Graphpad Software, version 7.02).

[2] = system: rHEK293-GCaMP5g cells; test: Ca2+ re-entry in rHEK293-GCaMP5g cells after Ca2+ store depletion (FlexStation 3); format: cell-based, human; details: carbachol 100 μM; for pEC50: Ca2+ 1.3 mM restored, areas under the curve (RFU) normalised to DMSO control, read-out: EC50, inhibition of Ca2+ re-entry; for Block of Ca2+ re-entry: compound 4 μM, 1.3 mM Ca2+ restored
Text: as §1, §2

[3] = system: mice (C57BI/6J); test: Photothrombotic cerebral cortex infarct model in mice; format: in vivo, mouse; details: for Infarct volume, 5 DPI carrier versus 5 DPI drug (ANOVA, Holm-Sidak): Nx-2 p=0.025, Nx-1 p=0.886
Procedure: All in vivo experiments were performed with University of New South Wales (UNSW) Sydney Animal Care and Ethics Committee approval. To undertake this randomized blinded photothrombotic study, male and female mice (C57BI/6J) aged 2-4 months (20-30 g) were anaesthetised with a 4% isoflurane induction (on O2) and fixed onto a stereotaxic frame. Anaesthesia was maintained at 1.5% isoflurane for the rest of the procedure. The animals were constantly monitored for their heart rate and oxygen saturation with their body temperature maintained at 37±1° C. (Kent Scientific Physiology Suite system). An ophthalmological ointment was applied to the eyes for corneal protection. Analgesia Temgesic (Buprenorphine; 0.15 mg/kg; 0.32 mg/ml) was administered intramuscularly, using a 27G needle. The skull was shaved over the target cerebral cortex region and a local anaesthetic Lignocaine was injected subcutaneously (27 needle; 20 mg/ml). A midline incision was made through the skin to expose the cranium and the periosteum was removed. The surface of the cranium was made lucid by applying ophthalmological gel over the surface. The fibre-optic coupled green LED (532 nm; ˜1 mW; 1 mm diameter light guide, Thorlabs, USA) was placed over the left hemisphere of cerebral cortex (3 mm rostral to lambda; 2 mm from the midline) followed by injection of photosensitising dye Rose Bengal (50 mg/kg) with a 29G needle via the tail vein. The skull was illuminated for 5 minutes to trigger the localized thrombus formation at the target region of cerebral cortex. The skin was then sutured and the isoflurane anaesthesia was discontinued, while providing 100% oxygen until the mice regained consciousness. Mice were injected with saline (intraperitoneal, 250 μl) during the recovery phase for rehydration. The mouse was maintained on the rectal probe feedback controlled heating pad in a recovery cage until ambulatory (˜20 min) and then the animal was placed back in its cage with food and water. The mice were monitored for signs of post-operative stress on a daily basis for the five day treatment period. Mice were administered with either the carrier or Nx-2 drug (100 mg/kg) via a rectal suppository, 45 minutes after the photothrombotic lesion, and then every 24 hours for a further 4 days in the conscious mouse. At 5 days post-infarct, the mice were euthanized via an intraperitoneal injection of Lethabarb (100 mg/kg; 27 G needle), following which the mice were transcardially perfused with 4% paraformaldehyde (PFA) in phosphate buffer (0.1 M, pH 7.4). The brains were dissected out and post-fixed for overnight in 4% PFA at 4° C. The brains were cryoprotected in 10% and 30% sucrose made in 0.01 M PBS solutions overnight respectively. Images of the surface infarct were captured on a dissecting microscope. Following cryoprotection, the brains were sectioned coronally (50 μm thick) and kept in 0.01 M PBS until they were imaged under the darkfield microscope. The Image J (NIH) software was used to measure the surface area of the infarct and darkfield sections enabled measurement of the cross sectional area of the infarct (Image J, NIH). Total infarct volume was quantified by summation of areas of infarct from darkfield sections integrated with thickness of the tissue. Descriptive statistics, ANOVA and t-tests were performed to detect the significance difference among the treatment groups using Sigmaplot (Systat software, version 12.0) after establishing normal distribution of the data (alpha=0.05).
The skull of the mouse (C57BI/6J strain) was exposed to enable fibre optic illumination of a region of the cerebral cortex with green light (532 nm) to trigger localized thrombus formation due to tail vein injection of the photo sensitizing dye Rose Bengal. Macroscopic representation of the photo-thrombotic infarct was assessed 5 days post injury in mice treated with carrier only or with Nx-1 drug. […]

Row | SMILES | pEC50 [1] | Block of carbachol-induced Ca2+ store release [1] | pEC50 [2] | Block of Ca2+ re-entry [2] | Infarct volume, 5 DPI carrier versus 5 DPI drug (ANOVA, Holm-Sidak) ([3]; 100 mg/kg) | Surface infarct area, 5 DPI drug versus core infarct (2 HPI control) ([3]; 100 mg/kg, p=0.064) | Neuroprotection, share of the penumbra expansion (surface infarct area) ([3]; 5 DPI, 100 mg/kg, relative to 2 HPI core infarct and 5 DPI carrier) [%] | infarct surface area ([3]; 5 days post infarct, 100 mg/kg rectal suppository 45 min after lesion then every 24 h for 4 days, individual mice) | infarct volume ([3]; Table 3, 5 days post infarct, Nx-2 100 mg/kg rectal suppository, individual mice) | pEC50 ([1]; Homo sapiens) | pEC50 ([2]; Homo sapiens) | infarct volume ([3]; Table 5, 5 days post infarct, Nx-1 100 mg/kg, individual mice) | infarct volume ([3]; Table 7, 5 days post infarct, Nx-1 100 mg/kg, individual mice)
1 | COc1ccc(C2c3ccc(O)cc3OCC2c2ccc(O)cc2)cc1 (racemic) [Nx-2] | ~6.22 and ~6.15 | Block; also recorded: virtually blocked | ~6.22 and ~6.15 | Block | significant difference | not significantly different | 50 | 6.56 mm^2 (2×) and 8.99 mm^2 and 8.19 mm^2 and 5.79 mm^2 and 6.70 mm^2 | 13.29 mm^3 and 10.34 mm^3 and 14.65 mm^3 and 12.02 mm^3 and 10.51 mm^3 and 13.76 mm^3 | – | – | – | –
2 | Oc1ccc(C2=Cc3ccc(O)cc3OC2)cc1 [Nx-1] | ~5.70 | block; also recorded: virtually blocked | ~5.70 | blocked | not significantly different | – | – | – | – | ~5.82 | ~5.82 | 11.80 mm^3 and 18.94 mm^3 and 14.16 mm^3 and 16.84 mm^3 | 11.80 mm^3 and 18.94 mm^3 and 14.16 mm^3 and 16.84 mm^3

From patent US20200215025A1, “TREATMENT OF EXCITOTOXICITY” (priority 2017, published 2020)
